Results from patent US8802895B2, “Amide derivatives of benzene-sulfonanilide, pharmaceutical composition thereof and method for cancer treatment using the same” (Cleveland State University, priority 2010, dated 2014).

How the values were obtained:
Assay type in all cases: cell-based
CCRF-CEM = assay: NCIDTP 60 cancer cell lines screening, Leukemia panel
RPMI-8226 = assay: as above
A549/ATCC = assay: NCIDTP 60 cancer cell lines screening, Non-Small Cell Lung Cancer panel
HOP-62 = assay: as above
NCI-H226 = assay: as above
NCI-H460 = assay: as above
NCI-H522 = assay: as above
COLO 205 = assay: NCIDTP 60 cancer cell lines screening, Colon Cancer panel
UACC-257 = assay: NCIDTP 60 cancer cell lines screening, Melanoma panel
IGROV1 = assay: NCIDTP 60 cancer cell lines screening, Ovarian Cancer panel
RXF 393 = assay: NCIDTP 60 cancer cell lines screening, Renal Cancer panel
SN12C = assay: as above
TK-10 = assay: as above
UO-31 = assay: as above
PC-3 = assay: NCIDTP 60 cancer cell lines screening, Prostate Cancer panel
HS 578T = assay: NCIDTP 60 cancer cell lines screening, Breast Cancer panel
T-47D = assay: as above

Compound: Cc1ccc(C)c(COc2cc(NC(=O)c3ccc4c(c3)OCO4)ccc2N(C)S(C)(=O)=O)c1 [Compound #10, Benzo[1,3]dioxole-5-carboxylic acid [3-(2,5-dimethyl-benzyloxy)-4-(methanesulfonyl-methyl-amino)-phenyl]-amide]
- TGI (CCRF-CEM): >1.00E−4 Molar
- GI50 (CCRF-CEM; Homo sapiens): 0.0485 µM
- CC50 (CCRF-CEM; Homo sapiens, read-out: LC50): > 100 µM
- Percent Growth (CCRF-CEM; Log10 Concentration −4.0 Molar): 16%
- Percent Growth (CCRF-CEM; Log10 Concentration −5.0 Molar): 14%
- Percent Growth (CCRF-CEM; Log10 Concentration −6.0 Molar): 13%
- Percent Growth (CCRF-CEM; Log10 Concentration −7.0 Molar): 31%
- Percent Growth (CCRF-CEM; Log10 Concentration −8.0 Molar): 92%
- GI50 (RPMI-8226; Homo sapiens, RPMI-8226): 0.29 µM
- CC50 (RPMI-8226; Homo sapiens, RPMI-8226, read-out: LC50): > 100 µM
- Percent Growth (RPMI-8226; RPMI-8226, Log10 Concentration −4.0 Molar): 6%
- Percent Growth (RPMI-8226; RPMI-8226, Log10 Concentration −5.0 Molar): −2%
- Percent Growth (RPMI-8226; RPMI-8226, Log10 Concentration −6.0 Molar): 14%
- Percent Growth (RPMI-8226; RPMI-8226, Log10 Concentration −7.0 Molar): 81%
- Percent Growth (RPMI-8226; RPMI-8226, Log10 Concentration −8.0 Molar): 93%
- TGI (A549/ATCC; A549/ATCC): 1.36E−5 Molar
- Percent Growth (A549/ATCC; A549/ATCC, Log10 Concentration −4.0 Molar): −29%
- Percent Growth (A549/ATCC; A549/ATCC, Log10 Concentration −5.0 Molar): 5%
- Percent Growth (A549/ATCC; A549/ATCC, Log10 Concentration −6.0 Molar): 12%
- Percent Growth (A549/ATCC; A549/ATCC, Log10 Concentration −7.0 Molar): 80%
- Percent Growth (A549/ATCC; A549/ATCC, Log10 Concentration −8.0 Molar): 97%
- CC50 (A549/ATCC; Homo sapiens, A549, read-out: LC50): > 100 µM
- GI50 (A549/ATCC; Homo sapiens, A549/ATCC): 0.278 µM
- TGI (HOP-62; HOP-62): >1.00E−4 Molar
- Percent Growth (HOP-62; HOP-62, Log10 Concentration −4.0 Molar): 19%
- Percent Growth (HOP-62; HOP-62, Log10 Concentration −5.0 Molar): 18%
- Percent Growth (HOP-62; HOP-62, Log10 Concentration −6.0 Molar): 18%
- Percent Growth (HOP-62; HOP-62, Log10 Concentration −7.0 Molar): 84%
- Percent Growth (HOP-62; HOP-62, Log10 Concentration −8.0 Molar): 102%
- GI50 (HOP-62; Homo sapiens, HOP-62): 0.329 µM
- CC50 (HOP-62; Homo sapiens, HOP-62, read-out: LC50): > 100 µM
- GI50 (NCI-H226; Homo sapiens, NCI-H226): 0.686 µM
- CC50 (NCI-H226; Homo sapiens, NCI-H226, read-out: LC50): > 100 µM
- TGI (NCI-H226; NCI-H226): >1.00E−4 Molar
- Percent Growth (NCI-H226; NCI-H226, Log10 Concentration −4.0 Molar): 16%
- Percent Growth (NCI-H226; NCI-H226, Log10 Concentration −5.0 Molar): 20%
- Percent Growth (NCI-H226; NCI-H226, Log10 Concentration −6.0 Molar): 42%
- Percent Growth (NCI-H226; NCI-H226, Log10 Concentration −7.0 Molar): 93%
- Percent Growth (NCI-H226; NCI-H226, Log10 Concentration −8.0 Molar): 87%
- GI50 (NCI-H460; Homo sapiens, NCI-H460): 0.184 µM
- CC50 (NCI-H460; Homo sapiens, NCI-H460, read-out: LC50): > 100 µM
- TGI (NCI-H460; NCI-H460): 7.44E−7 Molar
- Percent Growth (NCI-H460; NCI-H460, Log10 Concentration −4.0 Molar): −24%
- Percent Growth (NCI-H460; NCI-H460, Log10 Concentration −5.0 Molar): −10%
- Percent Growth (NCI-H460; NCI-H460, Log10 Concentration −6.0 Molar): −11%
- Percent Growth (NCI-H460; NCI-H460, Log10 Concentration −7.0 Molar): 72%
- Percent Growth (NCI-H460; NCI-H460, Log10 Concentration −8.0 Molar): 95%
- GI50 (NCI-H522; Homo sapiens, NCI-H522): 0.0335 µM
- CC50 (NCI-H522; Homo sapiens, NCI-H522, read-out: LC50): > 100 µM
- TGI (NCI-H522; NCI-H522): 2.40E−7 Molar
- Percent Growth (NCI-H522; NCI-H522, Log10 Concentration −4.0 Molar): −36%
- Percent Growth (NCI-H522; NCI-H522, Log10 Concentration −5.0 Molar): −42%
- Percent Growth (NCI-H522; NCI-H522, Log10 Concentration −6.0 Molar): −37%
- Percent Growth (NCI-H522; NCI-H522, Log10 Concentration −7.0 Molar): 23%
- Percent Growth (NCI-H522; NCI-H522, Log10 Concentration −8.0 Molar): 80%
- TGI (COLO 205; COLO 205): 1.07E−6 Molar
- Percent Growth (COLO 205; COLO 205, Log10 Concentration −4.0 Molar): −33%
- Percent Growth (COLO 205; COLO 205, Log10 Concentration −5.0 Molar): −41%
- Percent Growth (COLO 205; COLO 205, Log10 Concentration −6.0 Molar): 1%
- Percent Growth (COLO 205; COLO 205, Log10 Concentration −7.0 Molar): 99%
- Percent Growth (COLO 205; COLO 205, Log10 Concentration −8.0 Molar): 105%
- GI50 (COLO 205; Homo sapiens, COLO 205): 0.318 µM
- CC50 (COLO 205; Homo sapiens, COLO 205, read-out: LC50): > 100 µM
- GI50 (UACC-257; Homo sapiens, UACC-257): 0.144 µM
- CC50 (UACC-257; Homo sapiens, UACC-257, read-out: LC50): > 100 µM
- TGI (UACC-257; UACC-257): >1.00E−4 Molar
- Percent Growth (UACC-257; UACC-257, Log10 Concentration −4.0 Molar): 13%
- Percent Growth (UACC-257; UACC-257, Log10 Concentration −5.0 Molar): 29%
- Percent Growth (UACC-257; UACC-257, Log10 Concentration −6.0 Molar): 32%
- Percent Growth (UACC-257; UACC-257, Log10 Concentration −7.0 Molar): 53%
- Percent Growth (UACC-257; UACC-257, Log10 Concentration −8.0 Molar): 88%
- CC50 (IGROV1; Homo sapiens, IGROV-1, read-out: LC50): > 100 µM
- GI50 (IGROV1; Homo sapiens, IGROV-1, IGROV1): 0.237 µM
- TGI (IGROV1; IGROV1): >1.00E−4 Molar
- Percent Growth (IGROV1; IGROV1, Log10 Concentration −4.0 Molar): 13%
- Percent Growth (IGROV1; IGROV1, Log10 Concentration −5.0 Molar): 13%
- Percent Growth (IGROV1; IGROV1, Log10 Concentration −6.0 Molar): 18%
- Percent Growth (IGROV1; IGROV1, Log10 Concentration −7.0 Molar): 69%
- Percent Growth (IGROV1; IGROV1, Log10 Concentration −8.0 Molar): 92%
- GI50 (RXF 393; Homo sapiens, RXF 393): 0.128 µM
- CC50 (RXF 393; Homo sapiens, RXF 393, read-out: LC50): > 100 µM
- TGI (RXF 393; RXF 393): 4.03E−7 Molar
- Percent Growth (RXF 393; RXF 393, Log10 Concentration −4.0 Molar): −18%
- Percent Growth (RXF 393; RXF 393, Log10 Concentration −5.0 Molar): −20%
- Percent Growth (RXF 393; RXF 393, Log10 Concentration −6.0 Molar): −39%
- Percent Growth (RXF 393; RXF 393, Log10 Concentration −7.0 Molar): 61%
- Percent Growth (RXF 393; RXF 393, Log10 Concentration −8.0 Molar): 81%
- TGI (SN12C): >1.00E−4 Molar
- GI50 (SN12C; Homo sapiens): 0.472 µM
- CC50 (SN12C; Homo sapiens, read-out: LC50): > 100 µM
- Percent Growth (SN12C; Log10 Concentration −4.0 Molar): 23%
- Percent Growth (SN12C; Log10 Concentration −5.0 Molar): 22%
- Percent Growth (SN12C; Log10 Concentration −6.0 Molar): 30%
- Percent Growth (SN12C; Log10 Concentration −7.0 Molar): 91%
- Percent Growth (SN12C; Log10 Concentration −8.0 Molar): 96%
- GI50 (TK-10; Homo sapiens, TK-10): 0.354 µM
- CC50 (TK-10; Homo sapiens, TK-10, read-out: LC50): > 100 µM
- TGI (TK-10; TK-10): >1.00E−4 Molar
- Percent Growth (TK-10; TK-10, Log10 Concentration −4.0 Molar): 9%
- Percent Growth (TK-10; TK-10, Log10 Concentration −5.0 Molar): 6%
- Percent Growth (TK-10; TK-10, Log10 Concentration −6.0 Molar): 18%
- Percent Growth (TK-10; TK-10, Log10 Concentration −7.0 Molar): 88%
- Percent Growth (TK-10; TK-10, Log10 Concentration −8.0 Molar): 92%
- GI50 (UO-31; Homo sapiens, UO-31): 0.395 µM
- CC50 (UO-31; Homo sapiens, UO-31, read-out: LC50): > 100 µM
- TGI (UO-31; UO-31): >1.00E−4 Molar
- Percent Growth (UO-31; UO-31, Log10 Concentration −4.0 Molar): 14%
- Percent Growth (UO-31; UO-31, Log10 Concentration −5.0 Molar): 12%
- Percent Growth (UO-31; UO-31, Log10 Concentration −6.0 Molar): 35%
- Percent Growth (UO-31; UO-31, Log10 Concentration −7.0 Molar): 73%
- Percent Growth (UO-31; UO-31, Log10 Concentration −8.0 Molar): 78%
- GI50 (PC-3; Homo sapiens, PC-3): 0.0677 µM
- CC50 (PC-3; Homo sapiens, PC-3, read-out: LC50): > 100 µM
- TGI (PC-3; PC-3): >1.00E−4 Molar
- Percent Growth (PC-3; PC-3, Log10 Concentration −4.0 Molar): 21%
- Percent Growth (PC-3; PC-3, Log10 Concentration −5.0 Molar): 20%
- Percent Growth (PC-3; PC-3, Log10 Concentration −6.0 Molar): 21%
- Percent Growth (PC-3; PC-3, Log10 Concentration −7.0 Molar): 41%
- Percent Growth (PC-3; PC-3, Log10 Concentration −8.0 Molar): 92%
- Percent Growth (HS 578T; HS 578T, Log10 Concentration −4.0 Molar): 3%
- Percent Growth (HS 578T; HS 578T, Log10 Concentration −5.0 Molar): −9%
- Percent Growth (HS 578T; HS 578T, Log10 Concentration −6.0 Molar): −5%
- Percent Growth (HS 578T; HS 578T, Log10 Concentration −7.0 Molar): 47%
- Percent Growth (HS 578T; HS 578T, Log10 Concentration −8.0 Molar): 90%
- CC50 (HS 578T; Homo sapiens, Hs-578T, read-out: LC50): > 100 µM
- GI50 (HS 578T; Homo sapiens, HS 578T): 0.087 µM
- CC50 (T-47D; Homo sapiens, T47D, read-out: LC50): > 100 µM
- GI50 (T-47D; Homo sapiens, T47D, T-47D): 0.682 µM
- TGI (T-47D; T-47D): >1.00E−4 Molar
- Percent Growth (T-47D; T-47D, Log10 Concentration −4.0 Molar): 27%
- Percent Growth (T-47D; T-47D, Log10 Concentration −5.0 Molar): 29%
- Percent Growth (T-47D; T-47D, Log10 Concentration −6.0 Molar): 45%
- Percent Growth (T-47D; T-47D, Log10 Concentration −7.0 Molar): 77%
- Percent Growth (T-47D; T-47D, Log10 Concentration −8.0 Molar): 89%
